According to patent publication US7659404B2, “Broad spectrum 2-(substituted-amino)-benzothiazole sulfonamide HIV protease inhibitors” (Tibotec Pharmaceuticals Ltd., priority 2001, dated 2010):

Tests used:
virus strain F (R13025) = test: microbe, parasite or virus in culture; format: cell-based, HIV; conditions: FR=EC50(mutant strain)/EC50(HIV-1 strain LAI); strain F
Procedure, shortened: (§1)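 MT4 cells, HIV or mock infection, 5 d with compound dilutions; MTT readout, formazan in isopropanol, A540. EC50/EC90 = conc. protecting 50/90% of cells from CPE; CC50 from mock-infected cells. FR = EC50 mutant/EC50 LAI.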

virus strain S (R13080) = test: microbe, parasite or virus in culture; format: cell-based, HIV; conditions: FR=EC50(mutant strain)/EC50(HIV-1 strain LAI); strain S
Procedure, shortened: as §1

[1] = system: clinically isolated HIV strain H; format: cell-based; conditions: FR=EC50(mutant strain)/EC50(HIV-1 strain LAI)
Experimental: (§2) HIV- or mock-infected MT4 cells were incubated for five days in the presence of various concentrations of the inhibitor. […] Cell viability is measured by measuring the concentration of MTT, a yellow, water soluble tetrazolium dye that is converted to a purple, water insoluble formazan in the mitochondria of living cells only. Upon solubilization of the resulting formazan crystals with isopropanol, the absorbance of the solution is monitored at 540 nm. The values correlate directly to the number of living cells remaining in the culture at the completion of the five day incubation. The inhibitory activity of the compound was monitored on the virus-infected cells and was expressed as EC50 and EC90. These values represent the amount of the compound required to protect 50% and 90%, respectively, of the cells from the cytopathogenic effect of the virus. The toxicity of the compound was measured on the mock-infected cells and was expressed as CC50, which represents the concentration of compound required to inhibit the growth of the cells by 50%. The selectivity index (SI) (ratio CC50/EC50) is an indication of the selectivity of the anti-HIV activity of the inhibitor.
(§3) Because of the increasing emergence of drug resistant HIV strains, the present compounds were tested for their potency against clinically isolated HIV strains harboring several mutations.
(§4) As a measure of the broad spectrum activity of the present compounds, the fold resistance (FR) defined as FR=EC50(mutant strain)/EC50(HIV-1 strain LAI).

[2] = system: clinically isolated HIV strain I; format: cell-based; conditions: FR=EC50(mutant strain)/EC50(HIV-1 strain LAI)
Experimental: as §2, §3, §4

[3] = system: clinically isolated HIV strain J; format: cell-based; conditions: FR=EC50(mutant strain)/EC50(HIV-1 strain LAI)
Experimental: as §2, §3, §4

[4] = system: clinically isolated HIV strain O; format: cell-based; conditions: FR=EC50(mutant strain)/EC50(HIV-1 strain LAI)
Experimental: as §2, §3, §4

[5] = system: clinically isolated HIV strain T; format: cell-based; conditions: FR=EC50(mutant strain)/EC50(HIV-1 strain LAI)
Experimental: as §2, §3, §4

SMILES | fold resistance (FR), strain F (virus strain F (R13025)) | fold resistance (FR), strain S (virus strain S (R13080)) | fold resistance (FR), strain H [1] | fold resistance (FR), strain I [2] | fold resistance (FR), strain J [3] | fold resistance (FR), strain O [4] | fold resistance (FR), strain T [5]
CC(C)CN(C[C@@H](O)[C@H](Cc1ccccc1)NC(=O)OCc1cncs1)S(=O)(=O)c1ccc2nc(NCCN3CCNCC3)sc2c1 [Compound 57] | 1.3 | 1.6 | 1.6 | 1.3 | 1.3 | 1.3 | 9.0
Cc1c(N)cccc1C(=O)N[C@@H](Cc1ccccc1)[C@H](O)CN(CC(C)C)S(=O)(=O)c1ccc2nc(NCCN3CCNCC3)sc2c1 [Compound 60] | 1.2 | 1.4 | 1.3 | 1.3 | 0.6 | 1.1 | 4.1
CC(=O)N(C)c1nc2ccc(S(=O)(=O)N(CC(C)C)C[C@@H](O)[C@H](Cc3ccccc3)NC(=O)OCc3cccnc3)cc2s1 [Compound 81] | 106.8 | 121.0 | 5.6 | 6.1 | 29.6 | 20.4 | 387.6
CNCCNc1nc2ccc(S(=O)(=O)N(CC(C)C)C[C@@H](O)[C@H](Cc3ccccc3)NC(=O)O[C@H]3CO[C@H]4OCC[C@H]43)cc2s1 [Compound 23] | 1.1 | 1.1 | 1.2 | 1.0 | 1.0 | 0.9 | 1.2
CC(C)CN(C[C@@H](O)[C@H](Cc1ccccc1)NC(=O)OCc1cccnc1)S(=O)(=O)c1ccc2nc(NCCN(C)C)sc2c1 [Compound 38] | 12.4 | 11.9 | 2.0 | 1.1 | 3.9 | 1.2 | 230.4
CC(C)CN(C[C@@H](O)[C@H](Cc1ccccc1)NC(=O)O[C@H]1CO[C@H]2OCC[C@H]21)S(=O)(=O)c1ccc2nc(NCCN(C)C(=O)OC(C)(C)C)sc2c1 [Compound 21] | 16.6 | 38.6 | 4.8 | 3.7 | 3.3 | 3.4 | 380.0
Cc1cc(Br)ccc1C(=O)N[C@@H](Cc1ccccc1)[C@H](O)CN(CC(C)C)S(=O)(=O)c1ccc2nc(NC(=O)CN3CCCC3)sc2c1 [Compound 70] | 4.7 | 10.4 | 3.1 | 3.7 | 3.3 | 3.2 | 145.1
Cc1c(N)cccc1C(=O)N[C@@H](Cc1ccccc1)[C@H](O)CN(CC(C)C)S(=O)(=O)c1ccc2nc(NC(=O)CN3CCCC3)sc2c1 [Compound 62] | 14.5 | 16.1 | 3.2 | 2.8 | 2.4 | 2.7 | 277.9
CC(=O)Nc1nc2ccc(S(=O)(=O)N(CC(C)C)C[C@@H](O)[C@H](Cc3ccccc3)NC(=O)Cc3cc(C)no3)cc2s1 [Compound 84] | 54.3 | 195.4 | 11.7 | 13.0 | 19.6 | 6.1 | 195.4
CC(C)CN(C[C@@H](O)[C@H](Cc1ccccc1)NC(=O)OCc1cccnc1)S(=O)(=O)c1ccc2nc(NC(=O)CN3CCCC3)sc2c1 [Compound 61] | 32.7 | 80.0 | 5.2 | 4.8 | 10.6 | 7.1 | 1090.0
CC(=O)N(C)c1nc2ccc(S(=O)(=O)N(CC(C)C)C[C@@H](O)[C@H](Cc3ccccc3)NC(=O)O[C@H]3CCOC3)cc2s1 [Compound 79] | 113.0 | 313.0 | 12.1 | 3.9 | 9.8 | 7.4 | 893.1
Cc1c(N)cccc1C(=O)N[C@@H](Cc1ccccc1)[C@H](O)CN(CC(C)C)S(=O)(=O)c1ccc2nc(NCCN(C)C)sc2c1 [Compound 39] | 19.7 | 16.5 | 2.3 | 2.4 | 2.2 | 1.7 | 249.9
CC(=O)N(C)c1nc2ccc(S(=O)(=O)N(CC(C)C)C[C@@H](O)[C@H](Cc3ccccc3)NC(=O)c3cccc(O)c3C)cc2s1 [Compound 83] | 106.6 | 132.1 | 4.6 | 7.4 | 8.4 | 1.5 | 438.6
CC(C)CN(C[C@@H](O)[C@H](Cc1ccccc1)NC(=O)O[C@H]1CO[C@H]2OCC[C@H]21)S(=O)(=O)c1ccc2nc(N3CCN(C)C(=O)C3)sc2c1 [Compound 24] | 16.6 | 24.1 | 4.7 | 1.1 | 4.5 | 1.6 | 174.9
CC(C)CN(C[C@@H](O)[C@H](Cc1ccccc1)NC(=O)OCc1cccnc1)S(=O)(=O)c1ccc2nc(NCCN3CCCC3)sc2c1 [Compound 41] | 44.4 | 37.6 | 2.3 | 2.5 | 5.6 | 2.0 | 252.5
CC(C)CN(C[C@@H](O)[C@H](Cc1ccccc1)NC(=O)OCc1cncs1)S(=O)(=O)c1ccc2nc(NCCN3CCCC3)sc2c1.O=C(O)C(F)(F)F [Compound 50] | 8.6 | 27.9 | 1.4 | 1.7 | 7.0 | 3.5 | 165.5
CC(=O)N(CCN1CCCC1)c1nc2ccc(S(=O)(=O)N(CC(C)C)C[C@@H](O)[C@H](Cc3ccccc3)NC(=O)OCc3cccnc3)cc2s1 [Compound 71] | 29.6 | 79.6 | 2.7 | 2.2 | 7.0 | 5.0 | 321.5
CC(=O)N(C)c1nc2ccc(S(=O)(=O)N(CC(C)C)C[C@@H](O)[C@H](Cc3ccccc3)NC(=O)COc3c(C)cccc3C)cc2s1 [Compound 77] | 8.9 | 11.6 | 2.2 | 8.3 | 11.0 | 11.7 | 144.7
CC(=O)Nc1nc2ccc(S(=O)(=O)N(CC(C)C)C[C@@H](O)[C@H](Cc3ccccc3)NC(=O)c3cc(N)ccc3C)cc2s1 [Compound 73] | 43.1 | 966.6 | 9.8 | 12.1 | 14.1 | 20.7 | 966.6
COC(=O)CNc1nc2ccc(S(=O)(=O)N(CC(C)C)CC(O)C(Cc3ccccc3)NC(=O)OC3COC4OCCC34)cc2s1 (mixture of isomers) [Compound 6] | 24.0 | 30.7 | 7.7 | 5.3 | 5.6 | 4.7 | 104.3
